The target of experiment [1] is T1, Tyrosine-protein phosphatase non-receptor type 1 (Homo sapiens, UniProt P18031).
T1 sequence (P18031 whole entry): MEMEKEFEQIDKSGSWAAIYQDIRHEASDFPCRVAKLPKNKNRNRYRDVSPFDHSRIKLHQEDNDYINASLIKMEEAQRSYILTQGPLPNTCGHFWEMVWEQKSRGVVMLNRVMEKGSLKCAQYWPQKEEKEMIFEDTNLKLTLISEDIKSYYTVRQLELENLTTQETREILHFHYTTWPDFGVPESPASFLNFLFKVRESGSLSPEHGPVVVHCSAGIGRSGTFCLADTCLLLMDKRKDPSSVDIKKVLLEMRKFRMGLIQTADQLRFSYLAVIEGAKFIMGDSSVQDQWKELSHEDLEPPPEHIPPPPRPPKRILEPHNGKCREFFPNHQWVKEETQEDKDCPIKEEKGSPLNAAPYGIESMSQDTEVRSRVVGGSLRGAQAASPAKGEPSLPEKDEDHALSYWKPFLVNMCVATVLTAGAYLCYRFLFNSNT
Description: Inhibition of PTP1B (unknown origin)

Experiment [2] has as its target T1, Tyrosine-protein phosphatase non-receptor type 1. This is another data set of the same source.
Description: Inhibition of human recombinant PTP1B incubated for 15 mins by fluorometric assay
Experiment [3] has the same target. This is another data set of the same source.
Description: Inhibition of C-terminal PTP1B (unknown origin)

The compound `O=C(O)c1ccc(CN2C(=O)S/C(=C\c3ccc(OCc4ccccc4)cc3)C2=O)cc1` had an IC50 in experiment [1] of 1300 nM.
In turn, `O=C1CS/C(=N\c2ccccc2)N1c1ccc(S(=O)(=O)Nc2ncccn2)cc1` came in with a half-inhibitory concentration (IC50) in experiment [2] of 14000 nM.
Still for that read-out and setting: as for `CC(=O)C1=CC(=O)N(c2ccc(S(=O)(=O)Nc3ncccn3)cc2)C1=O`, the figure is 830 nM.
As to `CCN1C(=O)C(C)S/C1=N\c1ccc(S(=O)(=O)Nc2ncccn2)cc1` (stereo not given), in experiment [2], the IC50 stood at 710 nM.
Turning to `CN1CCN(CC(=O)Nc2ccc(S(=O)(=O)Nc3ncccn3)cc2)CC1`, in experiment [2], the IC50 was 570 nM.
For the compound `N#CC1=CC(=O)N(c2ccc(S(=O)(=O)Nc3ncccn3)cc2)C1=O`, the IC50 in experiment [2] turned out to be 720 nM.
Still for that read-out and setting: the value for `CC/N=C1\SCC(=O)N1c1ccc(S(=O)(=O)Nc2ncccn2)cc1` was 16600 nM; that for `O=C(CN1CCN(c2ccccc2)CC1)Nc1ccc(S(=O)(=O)Nc2ncccn2)cc1` was 3670 nM; that for `CC1S/C(=N\c2ccc(S(=O)(=O)Nc3ncccn3)cc2)N(c2ccccc2)C1=O` (stereo not given) was 1890 nM.
As for `CCN1C(=O)CS/C1=N\c1ccc(S(=O)(=O)Nc2ncccn2)cc1`, inhibition in experiment [2] was half-maximal at 620 nM (IC50).
Still for that read-out and setting: as for `CC1O/C(=N\c2ccc(S(=O)(=O)Nc3ncccn3)cc2)N(c2ccccc2)C1=O` (stereo not given), the figure is 1950 nM; as for `N=C1SCC(=O)N1c1ccc(S(=O)(=O)Nc2ncccn2)cc1`, 8970 nM.
The same measure, in the same setting: the value for `O=S(=O)(Nc1ncccn1)c1ccc(NCc2nc3ccccc3[nH]2)cc1` was 680 nM.
The compound `COC(=O)CC[C@@H](C)[C@H]1CC[C@H]2[C@@H]3[C@H](O)C[C@H]4C[C@H](NCCCCNCc5ccccn5)CC[C@]4(C)[C@H]3CC[C@]12C` registered an IC50 in experiment [3] of 100 nM.
In experiment [2], `CCc1ccc(CCOc2ccc(CC3SC(=O)NC3=O)cc2)nc1` (stereo not given) [PIOGLITAZONE] returned a 50% inhibitory concentration (IC50) of 650 nM.

For the origin of these results see ChEMBL document CHEMBL6177919, “Development, biological evaluation, and molecular modelling of some benzene-sulfonamide derivatives as protein tyrosine phosphatase-1B inhibitors for managing diabetes mellitus and associated metabolic disorders” (RSC Med Chem, 2025).
